In publication PMC5244392, “Interspecies cathelicidin comparison reveals divergence in antimicrobial activity, TLR modulation, chemokine induction and regulation of phagocytosis” (Scientific Reports, 2017):

Test system: RAW264.7 cells
Experiment: Cytotoxicity (WST-1 mitochondrial activity, PI staining)
Format: cell-based, murine
Details: 24 h, peptide 0.08-20 μM; WST-1 and PI staining
Experimental: WST-1 reagent was obtained from Roche (Basel, Switzerland). RAW264.7 cells were incubated with cathelicidins for 24 h, after which the supernatant was removed and replaced with 10% WST-1 reagent in culture medium. After 20 minutes, absorbance was measured at 450 nm with a FLUOstar Omega microplate reader (BMG Labtech GmbH, Ortenberg, Germany) and was corrected for absorbance at 630 nm. Non-treated control cells were defined as 100% mitochondrial activity.
In addition, cells were detached after peptide exposure and stained with propidium iodide (PI) (BD bioscience, San Jose, CA, USA). Percentages of PI positive (i.e. dead) cells were determined with flow cytometry (BD FACSCanto II flow cytometer (BD Biosciences)) and analyzed with FlowJo software (Ashland, OR, USA). […]
Supplementary Figure 3: Cytotoxicity of cathelicidins on RAW264.7 cells
(A) RAW264.7 cells were incubated for 24 hours with diﬀerent cathelicidins (0.08 µM, 0.31 µM, 1.25 µM, 5 µM, and 20 µM), after which they were incubated with WST-1 reagent for 20 minutes to measure the mitochondrial activity. No peptide control was set to 100% mitochondrial activity. Dotted line represents 80% mitochondrial activity. Results are presented as average +/- SEM (N = 4).
(B) RAW264.7 cells were incubated with diﬀerent cathelicidins (0.31 µM, 1.25 µM, 5 µM, and 20 µM). Cells were stained for PI to detect dead cells. […]

In the case of “Ac-GRFRRLRKKTRKRLKKIGKVLKWIPPIVGSIPLGCG [PMAP-36, porcine α-helical cathelicidin, N-acetylated, 36 residues, charge +13]”, the “Cytotoxicity to RAW264.7 cells, in words” value is reported as “some cytotoxicity, but only at the highest concentration”.
